# According to US10765114B2, “4-amino-6-(pyridyl and 2-substitutedphenyl)-picolinates and 6-amino-2-(pyridyl and 2-substitutedphenyl)-pyrimidine-4-carboxylates and their use as herbicides” (Dow AgroSciences LLC, priority 2013, dated 2020):
# Test system: Key Broadleaf Weed and Crop Species
# Assay: Post-Emergent Test II (Table 5)
# Type: in vivo
# Conditions: Abutilon theophrasti, post-emergence, 336 h, ABUTH: velvetleaf (Abutilon theophrasti), application rate 70 (kg ai/ha; footnote: g ai/ha), read-out: Visual Growth Reduction (%) 14 Days After Application ABUTH
# Method in brief: (§1)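 Growth stage at treatment: first or second true leaf. Application: compound in acetone/DMSO diluted into an adjuvant-containing aqueous mix, sprayed at 187 L/ha at several rates. Assessment: visual 0-100% injury at 14 days against untreated plants.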
row,SMILES,pest or weed control at 70 g/ha [%]
1,Nc1c(F)c(-c2ccc(OC(F)F)nc2)nc(C(=O)O)c1Cl [Compound 66],75 to 84

# Same assay, conditions: Abutilon theophrasti, post-emergence, 336 h, ABUTH: velvetleaf (Abutilon theophrasti), application rate 140 (kg ai/ha; footnote: g ai/ha), read-out: Visual Growth Reduction (%) 14 Days After Application ABUTH
row,SMILES,pest or weed control at 140 g/ha [%]
1,Nc1c(F)c(-c2ccc(OC(F)F)nc2)nc(C(=O)O)c1Cl [Compound 66],85 to 94

# Same assay, conditions: Amaranthus retroflexus, post-emergence, 336 h, AMARE: redroot pigweed (Amaranthus retroflexus), application rate 70 (kg ai/ha; footnote: g ai/ha), read-out: Visual Growth Reduction (%) 14 Days After Application AMARE
row,SMILES,pest or weed control at 70 g/ha [%]
1,Nc1c(F)c(-c2ccc(OC(F)F)nc2)nc(C(=O)O)c1Cl [Compound 66],0 to 29

# Same assay, conditions: Amaranthus retroflexus, post-emergence, 336 h, AMARE: redroot pigweed (Amaranthus retroflexus), application rate 140 (kg ai/ha; footnote: g ai/ha), read-out: Visual Growth Reduction (%) 14 Days After Application AMARE
row,SMILES,pest or weed control at 140 g/ha [%]
1,Nc1c(F)c(-c2ccc(OC(F)F)nc2)nc(C(=O)O)c1Cl [Compound 66],0 to 29

# Same assay, conditions: Brassica napus, post-emergence, 336 h, BRSSS: oilseed rape, canola (Brassica napus), application rate 70 (kg ai/ha; footnote: g ai/ha), read-out: Visual Growth Reduction (%) 14 Days After Application BRSSS
row,SMILES,pest or weed control at 70 g/ha [%]
1,Nc1c(F)c(-c2ccc(OC(F)F)nc2)nc(C(=O)O)c1Cl [Compound 66],0 to 29

# Same assay, conditions: Brassica napus, post-emergence, 336 h, BRSSS: oilseed rape, canola (Brassica napus), application rate 140 (kg ai/ha; footnote: g ai/ha), read-out: Visual Growth Reduction (%) 14 Days After Application BRSSS
row,SMILES,pest or weed control at 140 g/ha [%]
1,Nc1c(F)c(-c2ccc(OC(F)F)nc2)nc(C(=O)O)c1Cl [Compound 66],0 to 29

# Same assay, conditions: Chenopodium album, post-emergence, 336 h, CHEAL: lambsquarters (Chenopodium album), application rate 70 (kg ai/ha; footnote: g ai/ha), read-out: Visual Growth Reduction (%) 14 Days After Application CHEAL
row,SMILES,pest or weed control at 70 g/ha [%]
1,Nc1c(F)c(-c2ccc(OC(F)F)nc2)nc(C(=O)O)c1Cl [Compound 66],85 to 94

# Same assay, conditions: Chenopodium album, post-emergence, 336 h, CHEAL: lambsquarters (Chenopodium album), application rate 140 (kg ai/ha; footnote: g ai/ha), read-out: Visual Growth Reduction (%) 14 Days After Application CHEAL
row,SMILES,pest or weed control at 140 g/ha [%]
1,Nc1c(F)c(-c2ccc(OC(F)F)nc2)nc(C(=O)O)c1Cl [Compound 66],95 to 100

# Same assay, conditions: Euphorbia heterophylla, post-emergence, 336 h, EPHHL: wild poinsettia (Euphorbia heterophylla), application rate 70 (kg ai/ha; footnote: g ai/ha), read-out: Visual Growth Reduction (%) 14 Days After Application EPHHL
row,SMILES,pest or weed control at 70 g/ha [%]
1,Nc1c(F)c(-c2ccc(OC(F)F)nc2)nc(C(=O)O)c1Cl [Compound 66],95 to 100

# Same assay, conditions: Euphorbia heterophylla, post-emergence, 336 h, EPHHL: wild poinsettia (Euphorbia heterophylla), application rate 140 (kg ai/ha; footnote: g ai/ha), read-out: Visual Growth Reduction (%) 14 Days After Application EPHHL
row,SMILES,pest or weed control at 140 g/ha [%]
1,Nc1c(F)c(-c2ccc(OC(F)F)nc2)nc(C(=O)O)c1Cl [Compound 66],95 to 100

# Same assay, conditions: Helianthus annuus, post-emergence, 336 h, HELAN: sunflower (Helianthus annuus), application rate 70 (kg ai/ha; footnote: g ai/ha), read-out: Visual Growth Reduction (%) 14 Days After Application HELAN
row,SMILES,pest or weed control at 70 g/ha [%]
1,Nc1c(F)c(-c2ccc(OC(F)F)nc2)nc(C(=O)O)c1Cl [Compound 66],85 to 94

# Same assay, conditions: Helianthus annuus, post-emergence, 336 h, HELAN: sunflower (Helianthus annuus), application rate 140 (kg ai/ha; footnote: g ai/ha), read-out: Visual Growth Reduction (%) 14 Days After Application HELAN
row,SMILES,pest or weed control at 140 g/ha [%]
1,Nc1c(F)c(-c2ccc(OC(F)F)nc2)nc(C(=O)O)c1Cl [Compound 66],85 to 94

# Same assay, conditions: Viola tricolor, post-emergence, 336 h, VIOTR: wild pansy (Viola tricolor), application rate 70 (kg ai/ha; footnote: g ai/ha), read-out: Visual Growth Reduction (%) 14 Days After Application VIOTR
row,SMILES,pest or weed control at 70 g/ha [%]
1,Nc1c(F)c(-c2ccc(OC(F)F)nc2)nc(C(=O)O)c1Cl [Compound 66],60 to 74

# Same assay, conditions: Viola tricolor, post-emergence, 336 h, VIOTR: wild pansy (Viola tricolor), application rate 140 (kg ai/ha; footnote: g ai/ha), read-out: Visual Growth Reduction (%) 14 Days After Application VIOTR
row,SMILES,pest or weed control at 140 g/ha [%]
1,Nc1c(F)c(-c2ccc(OC(F)F)nc2)nc(C(=O)O)c1Cl [Compound 66],60 to 74

# Test system: not given
# Assay: not given
# Conditions: not given
row,melting point [°C],SMILES
1,134 to 136,Nc1c(F)c(-c2ccc(OC(F)F)nc2)nc(C(=O)O)c1Cl [Compound 66]

# Test system: Key Grass and Sedge Weeds as well as Grass Crops
# Assay: Post-Emergent Test II (Table 6)
# Type: in vivo
# Conditions: post-emergence, 336 h, CYPSS, 70 g ai/ha, 14 days after application, read-out: Visual Growth Reduction (%) 14 Days After Application CYPSS
# Method in brief: as §1
row,SMILES,pest or weed control at 70 g/ha [%]
1,Nc1c(F)c(-c2ccc(OC(F)F)nc2)nc(C(=O)O)c1Cl [Compound 66],45 to 59

# Same assay, conditions: post-emergence, 336 h, CYPSS, 140 g ai/ha, 14 days after application, read-out: Visual Growth Reduction (%) 14 Days After Application CYPSS
row,SMILES,pest or weed control at 140 g/ha [%]
1,Nc1c(F)c(-c2ccc(OC(F)F)nc2)nc(C(=O)O)c1Cl [Compound 66],45 to 59

# Same assay, conditions: post-emergence, 336 h, DIGSA: crabgrass (Digitaria sanguinalis), 70 g ai/ha, 14 days after application, read-out: Visual Growth Reduction (%) 14 Days After Application DIGSA
row,SMILES,pest or weed control at 70 g/ha [%]
1,Nc1c(F)c(-c2ccc(OC(F)F)nc2)nc(C(=O)O)c1Cl [Compound 66],60 to 74

# Same assay, conditions: post-emergence, 336 h, DIGSA: crabgrass (Digitaria sanguinalis), 140 g ai/ha, 14 days after application, read-out: Visual Growth Reduction (%) 14 Days After Application DIGSA
row,SMILES,pest or weed control at 140 g/ha [%]
1,Nc1c(F)c(-c2ccc(OC(F)F)nc2)nc(C(=O)O)c1Cl [Compound 66],60 to 74

# Same assay, conditions: post-emergence, 336 h, ECHSS, 70 g ai/ha, 14 days after application, read-out: Visual Growth Reduction (%) 14 Days After Application ECHSS
row,SMILES,pest or weed control at 70 g/ha [%]
1,Nc1c(F)c(-c2ccc(OC(F)F)nc2)nc(C(=O)O)c1Cl [Compound 66],75 to 84

# Same assay, conditions: post-emergence, 336 h, ECHSS, 140 g ai/ha, 14 days after application, read-out: Visual Growth Reduction (%) 14 Days After Application ECHSS
row,SMILES,pest or weed control at 140 g/ha [%]
1,Nc1c(F)c(-c2ccc(OC(F)F)nc2)nc(C(=O)O)c1Cl [Compound 66],75 to 84

# Same assay, conditions: post-emergence, 336 h, ORYSS (crop), 70 g ai/ha, 14 days after application, read-out: Visual Growth Reduction (%) 14 Days After Application ORYSS
row,SMILES,pest or weed control at 70 g/ha [%]
1,Nc1c(F)c(-c2ccc(OC(F)F)nc2)nc(C(=O)O)c1Cl [Compound 66],0 to 29

# Same assay, conditions: post-emergence, 336 h, ORYSS (crop), 140 g ai/ha, 14 days after application, read-out: Visual Growth Reduction (%) 14 Days After Application ORYSS
row,SMILES,pest or weed control at 140 g/ha [%]
1,Nc1c(F)c(-c2ccc(OC(F)F)nc2)nc(C(=O)O)c1Cl [Compound 66],0 to 29

# Same assay, conditions: post-emergence, 336 h, SETFA: giant foxtail (Setaria faberi), 70 g ai/ha, 14 days after application, read-out: Visual Growth Reduction (%) 14 Days After Application SETFA
row,SMILES,pest or weed control at 70 g/ha [%]
1,Nc1c(F)c(-c2ccc(OC(F)F)nc2)nc(C(=O)O)c1Cl [Compound 66],60 to 74

# Same assay, conditions: post-emergence, 336 h, SETFA: giant foxtail (Setaria faberi), 140 g ai/ha, 14 days after application, read-out: Visual Growth Reduction (%) 14 Days After Application SETFA
row,SMILES,pest or weed control at 140 g/ha [%]
1,Nc1c(F)c(-c2ccc(OC(F)F)nc2)nc(C(=O)O)c1Cl [Compound 66],60 to 74

# Same assay, conditions: post-emergence, 336 h, SORVU: grain sorghum (Sorghum vulgare), 70 g ai/ha, 14 days after application, read-out: Visual Growth Reduction (%) 14 Days After Application SORVU
row,SMILES,pest or weed control at 70 g/ha [%]
1,Nc1c(F)c(-c2ccc(OC(F)F)nc2)nc(C(=O)O)c1Cl [Compound 66],30 to 44

# Same assay, conditions: post-emergence, 336 h, SORVU: grain sorghum (Sorghum vulgare), 140 g ai/ha, 14 days after application, read-out: Visual Growth Reduction (%) 14 Days After Application SORVU
row,SMILES,pest or weed control at 140 g/ha [%]
1,Nc1c(F)c(-c2ccc(OC(F)F)nc2)nc(C(=O)O)c1Cl [Compound 66],75 to 84

# Same assay, conditions: post-emergence, 336 h, TRZSS (crop), 70 g ai/ha, 14 days after application, read-out: Visual Growth Reduction (%) 14 Days After Application TRZSS
row,SMILES,pest or weed control at 70 g/ha [%]
1,Nc1c(F)c(-c2ccc(OC(F)F)nc2)nc(C(=O)O)c1Cl [Compound 66],45 to 59

# Same assay, conditions: post-emergence, 336 h, TRZSS (crop), 140 g ai/ha, 14 days after application, read-out: Visual Growth Reduction (%) 14 Days After Application TRZSS
row,SMILES,pest or weed control at 140 g/ha [%]
1,Nc1c(F)c(-c2ccc(OC(F)F)nc2)nc(C(=O)O)c1Cl [Compound 66],60 to 74

# Same assay, conditions: post-emergence, 336 h, ZEAMX: maize, corn (Zea mays), 70 g ai/ha, 14 days after application, read-out: Visual Growth Reduction (%) 14 Days After Application ZEAMX
row,SMILES,pest or weed control at 70 g/ha [%]
1,Nc1c(F)c(-c2ccc(OC(F)F)nc2)nc(C(=O)O)c1Cl [Compound 66],60 to 74

# Same assay, conditions: post-emergence, 336 h, ZEAMX: maize, corn (Zea mays), 140 g ai/ha, 14 days after application, read-out: Visual Growth Reduction (%) 14 Days After Application ZEAMX
row,SMILES,pest or weed control at 140 g/ha [%]
1,Nc1c(F)c(-c2ccc(OC(F)F)nc2)nc(C(=O)O)c1Cl [Compound 66],60 to 74
